According to US10508109B2 (priority 2015, dated 2019):
Where a name gives a salt, the structure may show the parent alone. Read-outs that look alike come from different tables or passages of the source.

Legend:
[1] = tested on: A549; assay: Cell-based assay, anti-proliferative activity (Cell Counting Kit-8, 72 hours); details: read-out: IC50 (μM) A549
Summary of the method: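 After compound exposure of cells in 96-well plates, growth was measured colorimetrically and converted into IC50 values.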

[2] = tested on: CCD-18Co; assay: as above; details: read-out: IC50 (μM) CCD-18Co
Summary of the method: (§1)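 CCK-8 viability read 72 h after compound exposure over an 8-point series from 1.5625 to 100 micro-M plus zero. Seeding density 2,000–3,000 cells/well; IC50 from the dilution series.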

[3] = tested on: HCT-116; assay: as above; details: read-out: IC50 (μM) HCT-116
Summary of the method: as §1

[4] = tested on: HFL1; assay: as above; details: read-out: IC50 (μM) HFL1
Summary of the method: as §1

[5] = tested on: PC14; assay: as above; details: read-out: IC50 (μM) PC14
Summary of the method: as §1

[6] = target: SUV39H2 (Homo sapiens (Human), UniProt Q9H5I1); details: read-out: IC50 (μM) Suv 39H2 assay
Sequence of SUV39H2 (Q9H5I1 whole entry): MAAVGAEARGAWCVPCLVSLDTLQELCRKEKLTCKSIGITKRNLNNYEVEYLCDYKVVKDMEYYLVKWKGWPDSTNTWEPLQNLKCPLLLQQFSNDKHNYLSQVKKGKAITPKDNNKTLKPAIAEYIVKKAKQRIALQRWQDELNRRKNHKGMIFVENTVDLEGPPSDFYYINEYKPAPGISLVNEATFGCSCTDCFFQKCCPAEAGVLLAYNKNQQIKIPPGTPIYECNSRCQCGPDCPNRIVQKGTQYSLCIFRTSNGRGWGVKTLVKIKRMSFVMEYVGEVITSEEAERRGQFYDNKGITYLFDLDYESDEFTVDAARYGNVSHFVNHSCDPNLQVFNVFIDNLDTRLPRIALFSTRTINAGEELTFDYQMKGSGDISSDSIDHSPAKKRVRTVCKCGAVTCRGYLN

[7] = Homo sapiens, A549 cells, 72 hours, Cell Counting Kit-8
[8] = Homo sapiens, CCD-18Co cells, 72 hours, Cell Counting Kit-8
[9] = Homo sapiens, HCT-116 cells, 72 hours, Cell Counting Kit-8
[10] = Homo sapiens, HFL1 cells, 72 hours, Cell Counting Kit-8
[11] = Homo sapiens, PC-14, PC14 cells, 72 hours, Cell Counting Kit-8
[12] = Homo sapiens, A549 cells, Cell Counting Kit-8, 72 hours
[13] = Homo sapiens, CCD-18Co cells, Cell Counting Kit-8, 72 hours
[14] = Homo sapiens, HCT-116 cells, Cell Counting Kit-8, 72 hours
[15] = Homo sapiens, HFL1 cells, Cell Counting Kit-8, 72 hours
[16] = Homo sapiens, PC-14, PC14 cells, Cell Counting Kit-8, 72 hours

COc1cc(OC)c(-c2cn3ccc(N4CC[C@H](N)C4)cc3n2)cc1Cl [Example 47, (S)-1-(2-(5-Chloro-2,4-dimethoxyphenyl)imidazo[1,2-a]pyridin-7-yl)pyrrolidin-3-amine hydrochloride]
IC50 ([1]; Homo sapiens, A549, 72 h): 3 µM
IC50 ([2]; Homo sapiens, CCD-18Co, 72 h): 3.5 µM
IC50 ([3]; Homo sapiens, HCT-116, 72 h): 3.4 µM
IC50 ([4]; Homo sapiens, HFL1, 72 h): 2 µM
IC50 ([5]; Homo sapiens, PC-14, 72 h): 4.5 µM
IC50 [6]: 0.00829 µM

COc1cc(OC)c(-c2cn3cc(NCCN)c(N4CCN(S(=O)(=O)C5CC5)CC4)nc3n2)cc1Cl [Example 222, N^1-(2-(5-chloro-2,4-dimethoxyphenyl)-7-(4-(cyclopropylsulfonyl)-piperazin-1-yl)imidazo[1,2-a]pyrimidin-6-yl)ethane-1,2-diamine]
IC50 [1, 7]: 10 µM
IC50 [2, 8]: 10 µM
IC50 [3, 9]: 10 µM
IC50 [4, 10]: 10 µM
IC50 [5, 11]: 10 µM
IC50 ([6]; enzyme assay): 0.00597 µM

COc1cc(OCCCN(C)C)c(-c2cn3ccc(N4CCN(C(=O)C(C)(C)C)CC4)cc3n2)cc1Cl [Example 156, 1-(4-(2-(5-chloro-2-(3-(dimethylamino)propoxy)-4-methoxyphenyl)imidazo[1,2-a]pyridine-7-yl)piperazin-1-yl)-2,2-dimethylpropan-1-one]
IC50 [1, 12]: 6.3 µM
IC50 [2, 13]: 7.2 µM
IC50 [3, 14]: 6.2 µM
IC50 [4, 15]: 4.4 µM
IC50 [5, 16]: 5.8 µM
IC50 ([6]; enzyme assay): 0.0344 µM

1-(4-(2-(5-chloro-2-(3-(dimethylamino)propoxy)-4-methoxyphenyl)-imidazo[1,2-a]pyridin-7-yl)piperazin-1-yl)-2,2-dimethylpropan-1-one [Example 154]
IC50 ([1]; A549 cells, Cell Counting Kit-8, 72 hours): 6.9 µM
IC50 ([2]; CCD-18Co cells, Cell Counting Kit-8, 72 hours): 8.7 µM
IC50 ([3]; HCT-116 cells, Cell Counting Kit-8, 72 hours): 7.9 µM
IC50 ([4]; HFL1 cells, Cell Counting Kit-8, 72 hours): 4.3 µM
IC50 ([5]; PC14 cells, Cell Counting Kit-8, 72 hours): 8 µM
IC50 ([6]; enzyme assay): 0.0135 µM

CCOP(=O)(CCN1CC=C(c2ccn3cc(-c4cc(Cl)c(OC)cc4OC)nc3c2)CC1)OCC [Example 194, diethyl (2-(4-(2-(5-chloro-2,4-dimethoxyphenyl)imidazo[1,2-a]pyridin-7-yl)-5,6-dihydropyridin-1(2H)-yl)ethyl)phosphonate]
IC50 [1, 12]: 9 µM
IC50 [2, 13]: 10 µM
IC50 [3, 14]: 8.6 µM
IC50 [4, 15]: 10 µM
IC50 [5, 16]: 5.7 µM
IC50 ([6]; enzyme assay): 0.0696 µM

COc1cc(OC)c(-c2cn3cc(NCCN)c(OC)cc3n2)cc1Cl [Example 75, N^1-(2-(5-chloro-2,4-dimethoxyphenyl)-7-methoxyimidazo[1,2-a]-pyridin-6-yl)ethane-1,2-diamine]
IC50 [1, 12]: 6.9 µM
IC50 [2, 13]: 7.2 µM
IC50 [3, 14]: 6.7 µM
IC50 [4, 15]: 3.5 µM
IC50 [5, 16]: 5.7 µM
IC50 ([6]; enzyme assay): 0.00271 µM

COc1cc(OCCCN(C)C)c(-c2cn3ccc(N4CCC(NS(=O)(=O)C5CC5)CC4)cc3n2)cc1Cl [Example 163, N-(1-(2-(5-chloro-2-(3-(dimethylamino)propoxy)-4-methoxyphenyl)imidazo-[1,2-a]pyridin-7-yl)piperidin-4-yl)cyclopropanesulfonamide]
IC50 [1, 12]: 6.4 µM
IC50 [2, 13]: 5.6 µM
IC50 [3, 14]: 5.9 µM
IC50 [4, 15]: 2.7 µM
IC50 [5, 16]: 3.4 µM
IC50 ([6]; enzyme assay): 0.0206 µM

COc1cc(OC)c(-c2cn3ccc(N4CCCN(S(=O)(=O)N(C)C)CC4)cc3n2)cc1Cl [Example 200, 4-[2-(5-chloro-2,4-dimethoxyphenyl)imidazo[1,2-a]pyridin-7-yl]-N,N-dimethyl-1,4-diazepane-1-sulfonamide]
IC50 [1, 12]: 1.6 µM
IC50 [2, 13]: 3 µM
IC50 [3, 14]: 2 µM
IC50 [4, 15]: 1.7 µM
IC50 [5, 16]: 1.3 µM
IC50 ([6]; enzyme assay): 0.00674 µM

COc1cc(OC)c(-c2cn3ccc(N4CC[C@H](NCc5ccccn5)C4)cc3n2)cc1Cl [Example 299, (S)-1-(2-(5-chloro-2,4-dimethoxyphenyl)imidazo[1,2-a]pyridin-7-yl)-N-(pyridin-2-ylmethyl)pyrrolidin-3-amine]
IC50 [1, 7]: 5.3 µM
IC50 [2, 8]: 5.5 µM
IC50 [3, 9]: 4.5 µM
IC50 [4, 10]: 6.2 µM
IC50 [5, 11]: 3.5 µM
IC50 ([6]; enzyme assay): 0.00721 µM

CCc1cc(OC)c(Cl)cc1-c1cn2ccc(N3CCN(S(=O)(=O)C4CC4)CC3)cc2n1 [Example 261, 2-(5-chloro-2-ethyl-4-methoxyphenyl)-7-(4-(cyclopropylsulfonyl)piperazin-1-yl)imidazo[1,2-a]pyridine]
IC50 [1, 7]: 0.12 µM
IC50 [2, 8]: 0.36 µM
IC50 [3, 9]: 0.18 µM
IC50 [4, 10]: 0.18 µM
IC50 [5, 11]: 0.059 µM
IC50 ([6]; enzyme assay): 0.0966 µM

CCCCCNC1CCN(c2ccn3cc(-c4cc(Cl)c(OC)cc4OC)nc3c2)CC1 [Example 129, 1-[2-(5-chloro-2,4-dimethoxyphenyl)imidazo[1,2-a]pyridin-7-yl]-N-pentylpiperidin-4-amine]
IC50 [1, 12]: 1.5 µM
IC50 [2, 13]: 1.3 µM
IC50 [3, 14]: 0.74 µM
IC50 [4, 15]: 0.7 µM
IC50 [5, 16]: 1.7 µM
IC50 ([6]; enzyme assay): 0.00841 µM

COc1cc(OC)c(-c2cn3ccc(N4CCNC4=O)cc3n2)cc1Cl [Example 138, 1-(2-(5-chloro-2,4-dimethoxyphenyl)imidazo[1,2-a]pyridin-7-yl)-imidazolidin-2-one]
IC50 [1, 12]: 5.2 µM
IC50 [2, 13]: 2.2 µM
IC50 [3, 14]: 16 µM
IC50 [4, 15]: 5.5 µM
IC50 [5, 16]: 3.6 µM
IC50 ([6]; enzyme assay): 0.0201 µM

CCOC(=O)CCN1CCN(c2ccn3cc(-c4cc(Cl)c(OC)cc4OC)nc3c2)CC1 [Example 132, ethyl 3-(4-(2-(5-chloro-2,4-dimethoxyphenyl)imidazo[1,2-a]pyridin-7-yl)piperazin-1-yl)propanoate]
IC50 [1, 12]: 11 µM
IC50 [2, 13]: 22 µM
IC50 [3, 14]: 9.8 µM
IC50 [4, 15]: 7.6 µM
IC50 [5, 16]: 9 µM
IC50 ([6]; enzyme assay): 0.0124 µM

COc1cc(OC)c(-c2cn3ccc(C4=CCN(CCN5CCCCC5)CC4)cc3n2)cc1Cl [Example 147, 2-(5-chloro-2,4-dimethoxyphenyl)-7-(1-(2-(piperidin-1-yl)ethyl)-1,2,3,6-tetrahydropyridin-4-yl)imidazo[1,2-a]pyridine]
IC50 [1, 12]: 7 µM
IC50 [2, 13]: 6 µM
IC50 [3, 14]: 7.3 µM
IC50 [4, 15]: 8.7 µM
IC50 [5, 16]: 5.9 µM
IC50 ([6]; enzyme assay): 0.0295 µM

COC(=O)NC1CCN(c2ccn3cc(-c4cc(Cl)c(OC)cc4OC)nc3c2)CC1 [Example 122, methyl (1-(2-(5-chloro-2,4-dimethoxyphenyl)imidazo[1,2-a]pyridin-7-yl)piperidin-4-yl)carbamate]
IC50 [1, 12]: 2.7 µM
IC50 [2, 13]: 6.4 µM
IC50 [3, 14]: 5.8 µM
IC50 [4, 15]: 4.9 µM
IC50 [5, 16]: 3.3 µM
IC50 ([6]; enzyme assay): 0.00814 µM

COc1cc(OC)c(-c2cn3ccc(N4CCN(S(=O)(=O)N(C)C)CC4)nc3n2)cc1Cl [Example 180, 4-[2-(5-chloro-2,4-dimethoxyphenyl)imidazo[1,2-a]pyrimidin-7-yl]-N,N-dimethylpiperazine-1-sulfonamide]
IC50 [1, 12]: 1.1 µM
IC50 [2, 13]: 2.6 µM
IC50 [3, 14]: 1.5 µM
IC50 [4, 15]: 1.7 µM
IC50 [5, 16]: 1.6 µM
IC50 ([6]; enzyme assay): 0.0241 µM

COc1cc(OCCCN(C)C)c(-c2cn3ccc(N4CCN(S(C)(=O)=O)CC4)cc3n2)cc1Cl [Example 155, 3-(4-chloro-5-methoxy-2-{7-[4-(methylsulfonyl)piperazin-1-yl]-imidazo[1,2-a]pyridin-2-yl}phenoxy)-N,N-dimethylpropan-1-amine]
IC50 [1, 12]: 7.5 µM
IC50 [2, 13]: 7.5 µM
IC50 [3, 14]: 5.8 µM
IC50 [4, 15]: 5.5 µM
IC50 [5, 16]: 3.8 µM
IC50 ([6]; enzyme assay): 0.0127 µM

COc1cc(OC)c(-c2cn3cc(NCCN)c(N4CCN(C(=O)OC(C)(C)C)CC4)nc3n2)cc1Cl [Example 221, tert-butyl 4-(6-((2-aminoethyl)amino)-2-(5-chloro-2,4-dimethoxyphenyl)imidazo[1,2-a]pyrimidin-7-yl)piperazine-1-carboxylate]
IC50 [1, 7]: 10 µM
IC50 [2, 8]: 5.6 µM
IC50 [3, 9]: 5.4 µM
IC50 [4, 10]: 4.9 µM
IC50 [5, 11]: 9.5 µM
IC50 ([6]; enzyme assay): 0.0118 µM

COc1cc(OC)c(-c2cn3ccc(N4CCN(c5cnccn5)CC4)cc3n2)cc1Cl [Example 285, 2-(5-chloro-2,4-dimethoxyphenyl)-7-(4-(pyrazin-2-yl)piperazin-1-yl)imidazo[1,2-a]pyridine]
IC50 [1, 7]: 0.72 µM
IC50 [2, 8]: 0.7 µM
IC50 [3, 9]: 0.67 µM
IC50 [4, 10]: 0.69 µM
IC50 [5, 11]: 0.7 µM
IC50 ([6]; enzyme assay): 0.00747 µM
